Results from BindingDB's records for doi:10.1016/j.bmcl.2008.01.016 (Merck Research Laboratories, 2008).
pIC50: −log10 of the molar value.

Experiment: Antagonist activity at human CCR2 assessed as inhibition of MCP1-induced monocyte chemotaxis

- pIC50: 8.60
SMILES: C[C@H]1CN([C@@H]2CC[C@@]3(CCO[C@H]3OCc3cc(F)cc(C(F)(F)F)c3)C2)CC[C@@]12C=Cc1ccccc12
